Measured values published in EP2926811A1, “ARTEMETHER-CONTAINING PHARMACEUTICAL COMPOSITION, PREPARATION, AND USE THEREOF” (Kunming Pharmaceutical Corp., priority 2012, dated 2014).
Like-named read-outs stand apart in the source and are kept apart here.

Legend:
Format in all cases: cell-based
K562 cells = experiment: modified MTT method, proliferation of K562 cells; details: Homo sapiens, read-out: IC50 on the growth of K562 cells
Procedure: (§1) Five test concentrations 2, 10, 50, 250 and 500 µM were set for each of five derivatives of artemisinin, artemether drug substance, artemisinin, dihydroartemisinin, artesunate were dissolved with dimethyl sulfoxide (DMSO), while the lyophilized powder of artemether was dissolved with normal saline (N.S.), followed by addition of a certain amount of RPMI 1640 complete culture solution to formulate a high-concentration solution, and each of the low-concentration solutions was formulated by proportionate dilution from the high-concentration solution.
(§2) The concentrations of DMSO contained in the solutions at the two relatively high concentrations 500 and 250 µM for the artemether drug substance, artemisinin, dihydroartemisinin, artesunate, used as solvent controls, were formulated with […] culture solution, at which time the test concentrations of DMSO were 1% and 0.5%. The concentrations of the excipients contained in the solutions at the two relatively high concentrations 500 and 250 µM for the preparation of lyophilized powder of artemether were used as solvent controls.
(§3) The positive control was an anti-cancer drug adriamycin (ADM), which was set at three test concentrations (final concentrations) of 0.1, 1 and 10 µg/ml. To ADM stock solution (1 mg/ml) a certain amount of PRMI 1640 complete culture solution was added, to formulate a high-concentration solution, and each of the low-concentration solutions were formulated by proportionate dilutions from the high-concentration solution.
(§4) HL-60: (human promyelocytic leukemia cell line); K562 (human chronic myelocytic leukemia cell line); HT-29 (human colon cancer cell line); PC-3 (human prostate cancer cell line); A549 (human non-small cell lung cancer cell line); MKN-28 (human gastric cancer cell line); Hep2 (human laryngeal cancer cell line), all of which were purchased from Cell Bank of Shanghai Institutes for Biological Sciences, the Chinese Academy of Sciences.
(§5) Influence of the five test samples on the proliferation of 7 human tumor cell lines was determined via a modified MTT method.
(§6) Cells in logarithmic growth phase were taken, adjusted to a certain concentration and then added into a 96 well culture plate. After culture of adherent cells for a period until adherence, the test samples were added; and for suspension cells, the test samples were added after inoculation. 5 test concentrations 2, 10, 50, 250 and 500 µM were set, with 3 parallel wells for each concentration, 10 µl/well; the solvent controls were 0.5% and 1% of isovolumetric DMSO, and the positive controls was ADM at 3 concentrations 0.1, 1 and 10 µg/ml. The samples were loaded followed by culture for a period of time in an incubator at 37°C, 5% CO2, followed by addition of MTT (5 mg/ml) at 20 µl/well, and continued to be cultured for a period of time and added with a three-combined solution [10% SDS - 5% isobutanol - 0.012 mol/L HCl (W/V/V)]. After dissolving in uniformity, it was continued to be placed in the incubator at 37°C, 5% CO2 for a period of time, and the OD value of each well was determined under a wavelength of 570 nm with a microplate reader, according to which the results were calculated.
(§7) The cellular proliferation inhibition rate was calculated in accordance with the following equation: Inhibition rate (%) = (OD valuecontrol well-OD valuesample well)/OD valuecontrol well × 100% [formula]
(§8) When the inhibition rate of DMSO on cells was more than 15%, calculation was carried out using the following equation: Inhibition rate (%) = (OD valuesolvent group-OD valueadministered well)/OD valuesolvent group × 100% [formula]
(§9) The inhibition rate was calculated by using Microsoft Excel 2003, and median inhibitory concentration IC50 was calculated with a LOGIT method, which was used as an indicator for judging the inhibitory capability.

HL-60 cells = experiment: modified MTT method, proliferation of HL-60 cells; details: Homo sapiens, read-out: IC50 on the growth of HL-60 cells
Procedure: as §1, §2, §3, §4, §5, §6, §7, §8, §9

A549 cells = experiment: modified MTT method, proliferation of A549 cells; details: Homo sapiens, read-out: IC50 on the growth of A549 cells
Procedure: as §1, §2, §3, §4, §5, §6, §7, §8, §9

HT-29 cells = experiment: modified MTT method, proliferation of HT-29 cells; details: Homo sapiens
Procedure: as §1, §2, §3, §4, §5, §6, §7, §8, §9
(§10) According to the results of preliminary screening, further experiments were adjusted such that more sensitive cell lines were screened out. […]

PC-3 cells = experiment: modified MTT method, proliferation of PC-3 cells; details: Homo sapiens, read-out: IC50 on the growth of PC-3 cells
Procedure: as §1, §2, §3, §4, §5, §6, §7, §8, §9

MKN-28 cells = experiment: modified MTT method, proliferation of MKN-28 cells; details: Homo sapiens, MKN-28, 72 h, secondary screening
Procedure: as §1, §2, §3, §4, §5, §6, §7, §8, §9, §10

Hep2 cells = experiment: modified MTT method, proliferation of Hep2 cells; details: Homo sapiens, HEp-2, 72 h, secondary screening
Procedure: as §1, §2, §3, §4, §5, §6, §7, §8, §9, §10

- IC50 (K562 cells; K562, 24 h, Batch 1, 24 h): > 1000 µM
- IC50 (K562 cells; K562, 24 h, Batch 2, 24 h): 144 µM
- IC50 (K562 cells; K562, 24 h, Batch 3, 24 h): 146 µM
- IC50 (K562 cells; K562, 48 h, Batch 1, 48 h): 997 µM
- IC50 (K562 cells; K562, 48 h, Batch 2, 48 h): 28 µM
- IC50 (K562 cells; K562, 48 h, Batch 3, 48 h): 80.7 µM
- IC50 (K562 cells; K562, 72 h, Batch 1, 72 h): 492 µM
- IC50 (K562 cells; K562, 72 h, Batch 2, 72 h): 44.8 µM
- IC50 (K562 cells; K562, 72 h, Batch 3, 72 h): 60.5 µM
- IC50 (HL-60 cells; HL-60, 24 h, Batch 1, 24 h): > 1000 µM
- IC50 (HL-60 cells; HL-60, 24 h, Batch 2, 24 h): 74.4 µM
- IC50 (HL-60 cells; HL-60, 48 h, Batch 1, 48 h): > 1000 µM
- IC50 (HL-60 cells; HL-60, 48 h, Batch 2, 48 h): 16.3 µM
- IC50 (HL-60 cells; HL-60, 72 h, Batch 1, 72 h): > 1000 µM
- IC50 (HL-60 cells; HL-60, 72 h, Batch 2, 72 h): 116 µM
- IC50 (A549 cells; A549, 24 h, Batch 1, 24 h): > 1000 µM
- IC50 (A549 cells; A549, 24 h, Batch 2, 24 h): 935 µM
- IC50 (A549 cells; A549, 48 h, Batch 1, 48 h): > 1000 µM
- IC50 (A549 cells; A549, 48 h, Batch 2, 48 h): 221 µM
- IC50 (A549 cells; A549, 72 h, Batch 1, 72 h): > 1000 µM
- IC50 (A549 cells; A549, 72 h, Batch 2, 72 h): 192 µM
- IC50 (HT-29 cells; HT-29, 24 h, preliminary screening, Batch 1, 24 h, read-out: IC50 on the growth of HT-29 cells): 288 µM
- IC50 (HT-29 cells; HT-29, 24 h, preliminary screening, Batch 2, 24 h, read-out: IC50 on the growth of HT-29 cells): 280 µM
- IC50 (HT-29 cells; HT-29, 48 h, preliminary screening, Batch 1, 48 h, read-out: IC50 on the growth of HT-29 cells): 337 µM
- IC50 (HT-29 cells; HT-29, 48 h, preliminary screening, Batch 2, 48 h, read-out: IC50 on the growth of HT-29 cells): 433 µM
- IC50 (HT-29 cells; HT-29, 72 h, preliminary screening, Batch 1, 72 h, read-out: IC50 on the growth of HT-29 cells): 160 µM
- IC50 (HT-29 cells; HT-29, 72 h, preliminary screening, Batch 2, 72 h, read-out: IC50 on the growth of HT-29 cells): 258 µM
- IC50 (HT-29 cells; HT-29, 72 h, secondary screening, 72 h, Batch 1, read-out: IC50 on the growth of HT-29 cells (72 h)): 236 µM
- IC50 (HT-29 cells; HT-29, 72 h, secondary screening, 72 h, Batch 2, read-out: IC50 on the growth of HT-29 cells (72 h)): 173 µM
- IC50 (HT-29 cells; HT-29, 72 h, secondary screening, 72 h, Batch 3, read-out: IC50 on the growth of HT-29 cells (72 h)): 148 µM
- IC50 (HT-29 cells; HT-29, 72 h, secondary screening, 72 h, average, read-out: IC50 on the growth of HT-29 cells (72 h)): 143 µM
- IC50 (PC-3 cells; PC-3, 24 h, Batch 1, 24 h): 660 µM
- IC50 (PC-3 cells; PC-3, 24 h, Batch 2, 24 h): > 1000 µM
- IC50 (PC-3 cells; PC-3, 48 h, Batch 1, 48 h): > 1000 µM
- IC50 (PC-3 cells; PC-3, 48 h, Batch 2, 48 h): > 1000 µM
- IC50 (PC-3 cells; PC-3, 72 h, Batch 1, 72 h): 230 µM
- IC50 (PC-3 cells; PC-3, 72 h, Batch 2, 72 h): > 1000 µM
- IC50 (MKN-28 cells; Average, read-out: IC50 on the growth of MKN-28 cells (72 h)): 16.2 µM
- IC50 (MKN-28 cells; Batch 1, read-out: IC50 on the growth of MKN-28 cells (72 h)): 15.1 µM
- IC50 (MKN-28 cells; Batch 2, read-out: IC50 on the growth of MKN-28 cells (72 h)): 17.1 µM
- IC50 (MKN-28 cells; Batch 3, read-out: IC50 on the growth of MKN-28 cells (72 h)): 16.5 µM
SMILES: C[C@H]1[C@@H](O)O[C@@H]2O[C@@]3(C)CC[C@H]4[C@H](C)CC[C@@H]1[C@@]24OO3 [dihydroartemisinin]
- IC50 (Hep2 cells; Batch 1, read-out: IC50 on the growth of Hep2 cells (72 h)): 114 µM
- IC50 (Hep2 cells; Batch 2, read-out: IC50 on the growth of Hep2 cells (72 h)): 88.2 µM
- IC50 (Hep2 cells; Batch 3, read-out: IC50 on the growth of Hep2 cells (72 h)): 126 µM
- IC50 (Hep2 cells; average, read-out: IC50 on the growth of Hep2 cells (72 h)): 92 µM
